Paper PMC6611404 (Frontiers in Aging Neuroscience, 2019)
“And” between values parts separate entries of the source, which are not always exact repeats. Equal values may be shown once. Read-outs that look alike come from different tables or passages of the source.

Assays:
[1] = target: T1, AChE from human erythrocytes (Homo sapiens, UniProt P22303); test: biochemical; conditions: for inhibition at 1 µM: read-out: (h)AChE % inhibition at 10^−6M
T1 construct: AChE from human erythrocytes; purchased Sigma Aldrich; host or cells: human erythrocytes (natural source)
T1 sequence (P22303 other isoform, or with tags, fused parts or gaps): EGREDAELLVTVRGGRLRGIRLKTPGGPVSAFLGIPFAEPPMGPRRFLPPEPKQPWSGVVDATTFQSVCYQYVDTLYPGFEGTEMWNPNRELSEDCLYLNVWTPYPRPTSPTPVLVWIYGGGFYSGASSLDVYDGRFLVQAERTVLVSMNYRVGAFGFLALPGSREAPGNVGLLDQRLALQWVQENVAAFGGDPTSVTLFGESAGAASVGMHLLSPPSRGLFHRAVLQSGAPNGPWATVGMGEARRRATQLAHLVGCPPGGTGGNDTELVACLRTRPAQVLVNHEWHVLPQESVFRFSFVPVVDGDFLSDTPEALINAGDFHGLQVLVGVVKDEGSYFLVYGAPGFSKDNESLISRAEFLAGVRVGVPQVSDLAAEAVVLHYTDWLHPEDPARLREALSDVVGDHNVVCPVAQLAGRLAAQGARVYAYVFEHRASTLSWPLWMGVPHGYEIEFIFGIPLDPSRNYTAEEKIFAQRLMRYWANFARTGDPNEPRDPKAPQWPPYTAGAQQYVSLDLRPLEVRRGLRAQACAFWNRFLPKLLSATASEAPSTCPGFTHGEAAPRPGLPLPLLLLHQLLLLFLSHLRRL
Experimental: Acetylthiocholine iodide and 5,5-dithiobis-(2-nitrobenzoic) acid (DTNB) were purchased from Sigma Aldrich. AChE from human erythrocytes (buffered aqueous solution, ≥500 units/mg protein (BCA), Sigma Aldrich) was diluted in 20 mM HEPES buffer pH 8, 0.1% Triton X-100 such as to have enzyme solution with 0.25 unit/mL enzyme activity. In the procedure, 100 μL of 0.3 mM DTNB dissolved in phosphate buffer pH 7.4 was added into the 96-well plate followed by 50 μL of test compound solution and 50 μL of enzyme (0.05 U final). After 5 min of preincubation at 25°C, the reaction was then initiated by the injection of 50 μL of 10 mM acetylthiocholine iodide solution. […] Assays were performed with a blank containing all components except acetylthiocholine, in order to account for non-enzymatic reaction. The reaction slopes were compared and the percent inhibition due to the presence of test compounds was calculated by the following expression: 100 − (vi/v0 × 100) where vi is the rate calculated in the presence of inhibitor and v0 is the enzyme activity.

[2] = target: T2, human 5-HT6 receptors (Homo sapiens, UniProt P50406); test: [3H]-LSD competition binding on membranes of HEK-293 cells expressing human 5-HT6 receptors; conditions: for Ki: (h)5-HT6R Ki, n = 3, Ki ± SD; for inhibition / inhibition at 0.0025 µM: 2.5 nM [3H]-LSD
T2 construct: purchased Perkin Elmer RBHS6M; host or cells: HEK-293 cells, transient expression (membranes)
T2 sequence (P50406 whole entry): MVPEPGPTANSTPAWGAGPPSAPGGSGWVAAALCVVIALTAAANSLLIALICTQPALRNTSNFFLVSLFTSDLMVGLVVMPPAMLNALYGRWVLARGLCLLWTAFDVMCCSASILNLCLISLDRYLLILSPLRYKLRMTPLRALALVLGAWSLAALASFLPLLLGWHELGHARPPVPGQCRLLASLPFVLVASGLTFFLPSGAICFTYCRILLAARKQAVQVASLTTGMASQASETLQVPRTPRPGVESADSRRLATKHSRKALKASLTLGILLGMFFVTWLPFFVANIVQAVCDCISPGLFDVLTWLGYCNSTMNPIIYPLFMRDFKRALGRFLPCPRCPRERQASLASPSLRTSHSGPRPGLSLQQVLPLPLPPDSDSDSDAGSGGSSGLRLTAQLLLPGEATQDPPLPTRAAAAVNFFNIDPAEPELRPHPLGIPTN
Experimental: Drugs were evaluated through their possibility to compete for the binding of [^3H]-LSD on membranes of HEK-293 cells transiently expressing the human 5-HT6 receptors (ref. RBHS6M, Perkin Elmer). […] At the end of the incubation, the homogenates were then filtered through Whatman GF/C filters and washed five times with ice-cold 25 mM Tris-HCl buffer. Non-specific binding was evaluated in the presence of 100 μM serotonin. Radioactivity associated to proteins was then quantified and expressed as the percentage of inhibition of the drugs under study.
(§1) For some of these compounds, affinity constants were calculated from five-point inhibition curves using the GraphPad Prism 6 software and expressed as Ki ± SD.

[3] = target: T3, Human 5-HT4R (Homo sapiens, UniProt Q13639); test: [3H]-GR113808 competition binding on 5-HT4(b) membrane preparations; conditions: for inhibition / inhibition at 0.0002 µM: 0.2 nM [3H]-GR113808; for Ki: (h)5-HT4R Ki, n = 3, Ki ± SD
T3 construct: purchased Eurofins HTS110M
T3 sequence (Q13639 whole entry): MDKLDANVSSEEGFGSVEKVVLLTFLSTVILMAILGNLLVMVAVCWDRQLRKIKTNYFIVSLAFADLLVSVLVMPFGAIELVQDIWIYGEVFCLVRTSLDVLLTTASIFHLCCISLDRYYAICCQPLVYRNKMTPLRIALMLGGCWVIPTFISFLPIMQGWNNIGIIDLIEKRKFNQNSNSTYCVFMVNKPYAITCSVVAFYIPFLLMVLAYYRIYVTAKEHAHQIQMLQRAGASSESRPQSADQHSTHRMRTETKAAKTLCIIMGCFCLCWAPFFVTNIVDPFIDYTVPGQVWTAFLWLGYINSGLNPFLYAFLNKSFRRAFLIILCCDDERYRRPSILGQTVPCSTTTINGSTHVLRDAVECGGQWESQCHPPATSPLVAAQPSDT
Experimental: At the end of the incubation, homogenates were filtered through Whatman GF/C filters (Alpha Biotech) presoaked with 0.5% polyethylenimine using a Brandel cell harvester. Filters were subsequently washed three times with 1 mL of ice-cold 25 mM Tris buffer (pH 7.4, 4°C). Non-specific binding was evaluated in parallel in the presence of 30 μM serotonin.
as §1

[4] = read-out: (h)5-HT6R % inhibition at 10^−8M, 10^−8M
[5] = read-out: (h)5-HT4R % inhibition at 10^−6M, 10^−6M
[6] = read-out: (h)5-HT4R % inhibition at 10^−8M, 10^−8M
[7] = read-out: (h)5-HT6R % inhibition at 10^−6M, 10^−6M

SMILES	IC50 ([1]; n = 2, read-out: (h)AChE IC50)	inhibition at 1 µM [1]	Ki [2]	inhibition [2, 4]	inhibition [3, 5]	inhibition [3, 6]	inhibition [2, 7]	inhibitory effect towards AChE (in words) [1]	affinity for 5-HT6R (in words) [2]	inhibition at 0.0025 µM [2, 7]	Ki [3]	inhibition at 0.0002 µM [3, 6]	IC50 ([1]; (h)AChE IC50, n = 2)
COc1cc(N)c(Cl)cc1C(=O)CCC1CCN(Cc2ccccc2Cl)CC1 [5b, 1-(4-Amino-5-chloro-2-methoxyphenyl)-3-(1-(2-chlorobenzyl)piperidin-4-yl)propan-1-one]	156 ± 71 nM	91%	110 ± 19 nM	27%	94%	16%	–	–	–	–	–	–	–
COc1cc(N)c(Cl)cc1C(=O)CCC1CCN(Cc2cccc([N+](=O)[O-])c2)CC1 [5n, 1-(4-Amino-5-chloro-2-methoxyphenyl)-3-(1-(3-nitrobenzyl)piperidin-4-yl)propan-1-one]	–	64%	–	0%	90%	3%	51%	–	–	–	–	–	–
COc1cc(N)c(Cl)cc1C(=O)CCC1CCN(Cc2ccccc2I)CC1 [5e, 1-(4-Amino-5-chloro-2-methoxyphenyl)-3-(1-(2-iodobenzyl)piperidin-4-yl)propan-1-one]	–	37%	186 ± 71 nM	25%	96%	1%	81%	devoid of inhibitory effect towards AChE	displayed affinity for 5-HT6R	–	–	–	–
COc1cc(N)c(Cl)cc1C(=O)CCC1CCN(Cc2ccccc2O)CC1 [5h, 1-(4-Amino-5-chloro-2-methoxyphenyl)-3-(1-(2-hydroxybenzyl)piperidin-4-yl)propan-1-one]	57.4 ± 9.4 nM	94%	–	0%	98%	10%	24%	–	–	–	–	–	–
COc1cc(N)c(Cl)cc1C(=O)CCC1CCN(Cc2cccc(N)c2)CC1 [5m, 1-(4-Amino-5-chloro-2-methoxyphenyl)-3-(1-(3-aminobenzyl)piperidin-4-yl)propan-1-one]	41 ± 5 nM	93%	1150 ± 559 nM	31%	100%	–	–	–	–	> 70%	43 nM and 42.5 nM	≥ 25%	–
COc1cc(N)c(Cl)cc1C(=O)CCC1CCN(Cc2ccccc2OCc2ccccc2)CC1 [5g, 1-(4-Amino-5-chloro-2-methoxyphenyl)-3-(1-(2-benzyloxybenzyl)piperidin-4-yl)propan-1-one]	–	33%	–	0%	70%	7%	18%	–	–	–	–	–	–
COc1cccc(CN2CCC(CCC(=O)c3cc(Cl)c(N)cc3OC)CC2)c1 [5l, 1-(4-Amino-5-chloro-2-methoxyphenyl)-3-(1-(3-methoxybenzyl)piperidin-4-yl)propan-1-one]	–	35%	265 ± 64 nM	6%	94%	9%	78%	devoid of inhibitory effect towards AChE	displayed affinity for 5-HT6R	–	–	–	–
COc1cc(N)c(Cl)cc1C(=O)CCC1CCN(Cc2cc(N)ccc2F)CC1 [5t, 1-(4-Amino-5-chloro-2-methoxyphenyl)-3-(1-(5-amino-2-fluorobenzyl)piperidin-4-yl)propan-1-one]	153 ± 19.9 nM	79%	–	3%	98%	18%	65%	–	–	–	–	–	–
COc1cc(N)c(Cl)cc1C(=O)CCC1CCN(Cc2ccccc2Br)CC1 [5c, 1-(4-Amino-5-chloro-2-methoxyphenyl)-3-(1-(2-bromobenzyl)piperidin-4-yl)propan-1-one]	317 ± 115 nM	80%	–	34%	96%	17%	65%	–	–	–	–	–	–
COc1cc(N)c(Cl)cc1C(=O)CCC1CCN(Cc2cc(NC(C)=O)ccc2Br)CC1 [5r, N-(3-((4-(3-(4-Amino-5-chloro-2-methoxyphenyl)-3-oxopropyl)piperidin-1-yl)methyl)-4-bromophenyl) acetamide]	–	13%	–	7%	96%	6%	35%	–	–	–	–	–	–
COc1cc(N)c(Cl)cc1C(=O)CCC1CCN(Cc2cccc(Br)c2)CC1 [5i, 1-(4-Amino-5-chloro-2-methoxyphenyl)-3-(1-(3-bromobenzyl)piperidin-4-yl)propan-1-one]	–	44%	169 ± 44 nM	7%	94%	5%	77%	devoid of inhibitory effect towards AChE	displayed affinity for 5-HT6R	–	–	–	–
COc1cc(N)c(Cl)cc1C(=O)CCC1CCN(Cc2cc([N+](=O)[O-])ccc2F)CC1 [5s, 1-(4-Amino-5-chloro-2-methoxyphenyl)-3-(1-(2-fluoro-5-nitrobenzyl)piperidin-4-yl)propan-1-one]	–	63%	–	5%	62%	4%	18%	–	–	–	–	–	–
COc1cc(N)c(Cl)cc1C(=O)CCC1CCN(Cc2ccccc2F)CC1 [5d, 1-(4-Amino-5-chloro-2-methoxyphenyl)-3-(1-(2-fluorobenzyl)piperidin-4-yl)propan-1-one]	102 ± 65.4 nM	96%	–	21%	94%	10%	68%	–	–	–	–	–	–
COc1cc(N)c(Cl)cc1C(=O)CCC1CCN(Cc2cccc(F)c2)CC1 [5j, 1-(4-Amino-5-chloro-2-methoxyphenyl)-3-(1-(3-fluorobenzyl)piperidin-4-yl)propan-1-one]	91 ± 53.8 nM	97%	–	9%	98%	12%	59%	–	–	–	–	–	–
COc1cc(N)c(Cl)cc1C(=O)CCC1CCN(Cc2ccccc2)CC1 [5a]	–	98%	–	0%	102%	41%	29%	–	devoid of such an activity	–	–	–	–
COc1cc(N)c(Cl)cc1C(=O)CCC1CCN(Cc2ccccc2C)CC1 [5f, 1-(4-Amino-5-chloro-2-methoxyphenyl)-3-(1-(2-methylbenzyl)piperidin-4-yl)propan-1-one]	225 ± 57.3 nM	87%	270 ± 14 nM	24%	98%	9%	–	–	–	> 70%	–	–	–
COc1cc(N)c(Cl)cc1C(=O)CCC1CCN(Cc2ccc(F)cc2)CC1 [5o, 1-(4-Amino-5-chloro-2-methoxyphenyl)-3-(1-(4-fluorobenzyl)piperidin-4-yl)propan-1-one]	78.4 ± 12.1 nM	92%	–	13%	102%	19%	58%	–	–	–	–	–	–
COc1cc(N)c(Cl)cc1C(=O)CCC1CCN(Cc2ccc(C)cc2)CC1 [5q, 1-(4-Amino-5-chloro-2-methoxyphenyl)-3-(1-(4-methylbenzyl)piperidin-4-yl)propan-1-one]	450 nM	87%	–	21%	100%	24%	21%	–	–	–	–	–	–
COc1cc(N)c(Cl)cc1C(=O)CCC1CCN(Cc2cccc(C)c2)CC1 [5k, 1-(4-Amino-5-chloro-2-methoxyphenyl)-3-(1-(3-methylbenzyl)piperidin-4-yl)propan-1-one]	–	89%	230 ± 49 nM	9%	98%	–	–	–	–	> 70%	168 ± 15 nM	≥ 25%	161 ± 43 nM
COc1cc(N)c(Cl)cc1C(=O)CCC1CCN(Cc2ccc(O)cc2)CC1 [5p, 1-(4-Amino-5-chloro-2-methoxyphenyl)-3-(1-(4-hydroxybenzyl)piperidin-4-yl)propan-1-one]	6 ± 0.4 nM	98%	–	0%	100%	23%	24%	–	–	–	–	–	–
